Results taken from article PMC6651094, “A Ligand-Based Virtual Screening Method Using Direct Quantification of Generalization Ability” (Molecules, 2019).

Target: T1, HIV-1 integrase multimerization (Human immunodeficiency virus type 1 group M subtype B, UniProt P12497)
T1 construct: His-tagged and FLAG-tagged integrase (donated by professor Mamuka Kvaratskhelia); gift of Prof; Mamuka Kvaratskhelia (University of Colorado Denver Anschutz Medical Campus)
Assay: HTRF assay validating activators of HIV-1 integrase multimerization (in vitro binding assay)
Type: biochemical
Conditions: His-tagged and FLAG-tagged integrase 20 nM each; time-resolved FRET; 8-point 1:3 dilution from 53.7 μM, triplicate; active when EC50 < 5 µM
Description: An assay was carried out as previously described to experimentally validate the compounds [45] identified by LBS as activators of HIV-1 integrase multimerization. Briefly, His-tagged and FLAG-tagged integrase (donated by professor Mamuka Kvaratskhelia at university of Colorado Denver Anschutz Medical Campus) were separately prepared with final concentration of 20 nM. An antibody mixture was prepared with 1.25 μg/mL of anti-6xHis-XL665 antibody (Cisbio) and 58 ng/mL of anti-FLAG-EuCryptate antibody (Cisbio), respectively, in Tris-HCl buffer. His-tagged and FLAG-tagged Integrase were mixed in 25 mM Tris-HCl (pH 7.4) buffer containing 150 mM NaCl, 2 mM MgCl2, 0.1% Nonidet P40, and 1 mg/mL BSA. 35 μL of integrase mixture was added to each well. Next, 270 nL of compounds (each in triplicate using 8-point 1:3 dilution series starting at a maximum nominal test concentration of 53.7 μM) were distributed to appropriate wells. Dimethyl sulfoxide was used as low-control, and BIB-II (donated by professor Mamuka Kvaratskhelia at university of Colorado Denver Anschutz Medical Campus) was used as high-control reference compound. After 3 h of incubation, 15 μL of antibody mixture was added to the plates. After incubation at room temperature for 2.5 h, the time-resolved fluorescence energy transfer signal was measured by the microplate reader (SpectraMax M5, Molecular Devices, LLC., San Jose, CA, USA) by exciting the plates (384 well, Corning) at 340 nm and monitoring well fluorescence at 618 nm and 671 nm with the microplate reader. All the test compounds were bought from ChemDiv (San Diego, CA, USA).

Row | SMILES | EC50
1 | O=C(NNC1OC(CO)C(O)C(O)C1O)c1ccc(O)cc1 (stereo not shown) [compound 4137880] | 1260 nM
2 | COc1cccc(C=NNc2nc3c(=O)[nH]c(N)nc3n2C2OC(CO)C(O)C2O)c1O (stereo not shown) [compound 135427812] | 710 nM
3 | O=c1cc(-c2ccc(O)c(O)c2)oc2cc(OC3OC(CO)C(O)C(O)C3O)cc(O)c12 (stereo not shown) [compound 5291488] | 3620 nM
4 | O=c1c2cc(O)c(O)cc2oc2cc(O)c(OC3OC(CO)C(O)C(O)C3O)c(O)c12 (stereo not shown) [compound 46397461] | 1260 nM
5 | O=C(NN=Cc1ccccc1F)c1cc(O)c(O)c(O)c1 [compound 3656702] | 4880 nM
6 | O=c1c(OC2OC(CO)C(O)C(O)C2O)c(-c2ccc(O)c(O)c2)oc2cc(O)cc(O)c12 (stereo not shown) [compound 5378597] | 1360 nM
7 | COc1cccc(/C=N/Nc2nc3c(=O)[nH]c(N)nc3n2C2OC(CO)C(O)C2O)c1O (stereo not shown) [Pubchem CID 135427812] | 710 nM
